Experiments:
[1] = molecular target: T1, ATP-dependent translocase ABCB1 (Homo sapiens, UniProt P08183); assay: Inhibition of human ABCB1 expressed in mouse L5178Y cells assessed as fluorescence activity ratio at 20 uM pretreated for 10 mins followed by rhodamine-123 addition after 20 mins by flow cytometry; assay type: cell-based
[2] = Selectivity index, ratio of IC50 for mouse L5178Y cells to IC50 for human ABCB1 expressed in L5178Y cells
[3] = molecular target: T1, ATP-dependent translocase ABCB1; assay: Inhibition of human ABCB1 expressed in mouse L5178Y cells assessed as increase in rhodamine-123 accumulation by measuring forward scatter count of cells at 2 uM pretreated for 10 mins followed by rhodamine-123 addition after 20 mins by flow cytometry (reference value: 2206); assay type: cell-based
[4] = molecular target: T1, ATP-dependent translocase ABCB1; assay: Inhibition of human ABCB1 expressed in mouse L5178Y cells pretreated for 10 mins followed by rhodamine-123 addition after 20 mins by flow cytometry; assay type: cell-based
NIH3T3 = assay: Cytotoxicity against mouse NIH/3T3 cells after 24 hrs by MTT assay; assay type: cell-based; conditions: NIH3T3, 24 h
[5] = Selectivity index, ratio of IC50 for mouse NIH/3T3 cells to IC50 for mouse L5178Y cells; assay type: functional
[6] = molecular target: T1, ATP-dependent translocase ABCB1; assay: Inhibition of human ABCB1 expressed in mouse L5178Y cells assessed as fluorescence activity ratio at 2 uM pretreated for 10 mins followed by rhodamine-123 addition after 20 mins by flow cytometry; assay type: cell-based
L5178Y = assay: Cytotoxicity against mouse L5178Y cells after 24 hrs by MTT assay; assay type: functional, cell-based
[7] = molecular target: T1, ATP-dependent translocase ABCB1; assay: Inhibition of human ABCB1 expressed in mouse L5178Y cells assessed as increase in rhodamine-123 accumulation by measuring side scatter count of cells at 20 uM pretreated for 10 mins followed by rhodamine-123 addition after 20 mins by flow cytometry (reference value: 903); assay type: cell-based
[8] = molecular target: T1, ATP-dependent translocase ABCB1; assay: Inhibition of human ABCB1 expressed in mouse L5178Y cells assessed as increase in rhodamine-123 accumulation by measuring side scatter count of cells at 2 uM pretreated for 10 mins followed by rhodamine-123 addition after 20 mins by flow cytometry (reference value: 903); assay type: cell-based
[9] = molecular target: T1, ATP-dependent translocase ABCB1; assay: Inhibition of human ABCB1 expressed in mouse L5178Y cells assessed as increase in rhodamine-123 accumulation by measuring forward scatter count of cells at 20 uM pretreated for 10 mins followed by rhodamine-123 addition after 20 mins by flow cytometry (reference value: 2206); assay type: cell-based
[10] = molecular target: T1, ATP-dependent translocase ABCB1; assay: Inhibition of human ABCB1 expressed in mouse L5178Y cells assessed as potentiation of doxorubicin-induced cytotoxicity by measuring combination index at 2:25 doxorubicin to compound ratio after 48 hrs by MTT assay; assay type: cell-based
[11] = molecular target: T1, ATP-dependent translocase ABCB1; assay: Inhibition of human ABCB1 expressed in mouse L5178Y cells assessed as potentiation of doxorubicin-induced cytotoxicity by measuring combination index at 2:5 doxorubicin to compound ratio after 48 hrs by MTT assay; assay type: cell-based

T1 sequence (P08183 whole entry): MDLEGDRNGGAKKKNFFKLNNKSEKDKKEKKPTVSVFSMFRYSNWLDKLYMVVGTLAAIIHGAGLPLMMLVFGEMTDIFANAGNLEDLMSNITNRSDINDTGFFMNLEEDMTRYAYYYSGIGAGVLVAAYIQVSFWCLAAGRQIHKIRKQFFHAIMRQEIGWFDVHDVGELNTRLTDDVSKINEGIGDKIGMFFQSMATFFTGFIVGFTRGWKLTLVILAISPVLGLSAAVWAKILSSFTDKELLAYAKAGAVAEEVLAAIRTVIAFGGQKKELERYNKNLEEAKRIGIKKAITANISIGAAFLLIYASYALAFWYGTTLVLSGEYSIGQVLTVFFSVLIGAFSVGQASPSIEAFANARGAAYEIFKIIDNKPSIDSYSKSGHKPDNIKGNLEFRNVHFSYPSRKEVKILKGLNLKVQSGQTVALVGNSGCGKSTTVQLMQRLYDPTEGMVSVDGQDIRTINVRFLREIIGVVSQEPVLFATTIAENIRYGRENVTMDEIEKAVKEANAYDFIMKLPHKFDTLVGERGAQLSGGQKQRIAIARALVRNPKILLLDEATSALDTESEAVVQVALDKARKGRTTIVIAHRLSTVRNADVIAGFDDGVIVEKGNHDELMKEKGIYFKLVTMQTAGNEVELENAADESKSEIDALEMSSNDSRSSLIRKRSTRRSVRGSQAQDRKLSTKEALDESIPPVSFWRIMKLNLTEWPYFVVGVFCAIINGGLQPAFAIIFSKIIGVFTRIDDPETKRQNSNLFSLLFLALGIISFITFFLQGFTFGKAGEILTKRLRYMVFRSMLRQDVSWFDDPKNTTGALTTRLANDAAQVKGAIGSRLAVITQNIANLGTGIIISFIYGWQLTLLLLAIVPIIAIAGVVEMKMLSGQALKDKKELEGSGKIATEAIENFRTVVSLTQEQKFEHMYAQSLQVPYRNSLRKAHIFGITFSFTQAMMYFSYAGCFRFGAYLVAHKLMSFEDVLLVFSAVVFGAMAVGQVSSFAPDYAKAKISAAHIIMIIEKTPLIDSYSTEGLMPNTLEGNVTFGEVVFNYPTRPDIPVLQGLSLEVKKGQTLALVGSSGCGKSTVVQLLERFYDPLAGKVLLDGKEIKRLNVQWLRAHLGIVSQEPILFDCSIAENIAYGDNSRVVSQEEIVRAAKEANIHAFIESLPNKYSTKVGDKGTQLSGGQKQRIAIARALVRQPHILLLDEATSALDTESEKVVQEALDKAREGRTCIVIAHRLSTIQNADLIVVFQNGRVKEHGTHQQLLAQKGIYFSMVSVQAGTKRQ

Row | SMILES | Ratio [1] | Ratio IC50 [2] | Activity [3] | inhibition (INH) [4] | IC50 (NIH3T3) | Ratio IC50 [5] | Ratio [6] | IC50 (L5178Y) | Activity [7] | Activity [8] | Activity [9] | CI [10] | CI [11]
1 | CC[C@@H]1CN(C)[C@H]2Cc3c([nH]c4ccccc34)/C(=N/Nc3ccccc3)C[C@H]1[C@@H]2C(=O)OC | 59.65 | 0.67 | 2129 | Dose-dependent effect | 19.9 µM | 1.74 | 5.49 | 11.4 µM | 955 | 941 | 2046 | 0.2 | 
2 | CC[C@H]1CN(C)[C@H]2Cc3c([nH]c4ccccc34)/C(=N/Nc3ccc(Br)cn3)C[C@H]1[C@@H]2C(=O)OC | 56.22 | 0.89 | 2152 |  | 86.5 µM | 2.43 | 57.99 | 35.6 µM | 992 | 1049 | 1947 | 0.28 | 
3 | CC[C@@H]1CN(C)[C@H]2Cc3c([nH]c4ccccc34)/C(=N/Nc3ccc(Br)cn3)C[C@H]1[C@@H]2C(=O)OC | 70.82 | 0.78 | 2294 |  | 83.2 µM | 2.85 | 84.19 | 29.2 µM | 765 | 804 | 2225 | 0.19 | 
4 | CC[C@@H]1CN(C)[C@H]2Cc3c([nH]c4ccccc34)/C(=N/O)C[C@H]1[C@@H]2C(=O)OC | 7.31 | 0.7 | 2237 | Dose-dependent effect | > 100 µM |  | 1.26 | 60.1 µM | 781 | 789 | 2304 | 0.36 | 
5 | CC[C@H]1CN(C)[C@H]2Cc3c([nH]c4ccccc34)/C(=N/Nc3cnccn3)C[C@H]1[C@@H]2C(=O)OC | 60.79 | 0.88 | 2227 | Dose-dependent effect | > 100 µM |  | 8.49 | 75 µM | 1038 | 1058 | 2229 |  | 0.1
6 | CC[C@H]1CN(C)[C@H]2Cc3c([nH]c4ccccc34)/C(=N/N)C[C@H]1[C@@H]2C(=O)OC | 46.47 | 0.95 | 2184 | Dose-dependent effect | > 100 µM |  | 1.93 | 69.8 µM | 1037 | 1025 | 2162 |  | 
7 | CC[C@@H]1CN(C)[C@H]2Cc3c([nH]c4ccccc34)/C(=N/N)C[C@H]1[C@@H]2C(=O)OC | 18.46 | 0.96 | 2191 | Dose-dependent effect | 95 µM | 1.36 | 1.32 | 46.6 µM | 918 | 927 | 2172 |  | 
8 | CC[C@H]1CN(C)[C@H]2Cc3c([nH]c4ccccc34)/C(=N/O)C[C@H]1[C@@H]2C(=O)OC | 3.87 | 0.77 | 2156 | Dose-dependent effect | 35.8 µM | 2.75 | 0.85 | 13 µM | 912 | 958 | 2182 |  | 
9 | CC[C@@H]1CN(C)[C@H]2Cc3c([nH]c4ccccc34)/C(=N/Nc3cnccn3)C[C@H]1[C@@H]2C(=O)OC | 78.79 |  | 2283 | Dose-dependent effect | > 100 µM |  | 10.28 | 63.9 µM | 765 | 793 | 2265 |  | 0.31

— ChEMBL document CHEMBL4004848, “Dregamine and tabernaemontanine derivatives as ABCB1 modulators on resistant cancer cells” (Eur J Med Chem, 2017)
